Here are results for 15 compounds from patent US9499530B2 (HANGZHOU MINSHENG INSTITUTES FOR PHARMA RESEARCH, priority 2011, dated 2016).

Entries after “also recorded” stand apart in the source; their conditions may differ. Where only a bound is given, the exact number is not on record here.

Usually IC50 stands for the concentration that inhibits the measured activity by half.

In data set [1] the target is ErbB-2 (Epidermal Growth Factor Receptor 2) (Homo sapiens, UniProt P04626). As to the kind of experiment: ELISA protein tyrosine kinase inhibition, ErbB-2. The data set is classed as biochemical. The note with it: Poly(Glu, Tyr) 4:1 substrate, ATP 5 μM, test samples at 10-5 mol/l, read-out: ErbB2 inhibitory activity (IC50 class). An excerpt: (§1) Determining the Effect of Test Samples at a Concentration of 10-5 Mol/l on the Activity of the Substrate Phosphoryation Catalyzed by EGFR (Epidermal Growth Factor Receptor 1), ErbB-2 (Epidermal Growth Factor Receptor 2), ErbB-4, KDR (Vascular Endothelial Growth Factor Receptor 2) Protein Tyrosine Kinases at Molecular Level
(§2) Enzyme-Linked Immunosorbent Assay (ELISA)
(§3) Main instrument: wavelength-tunable microplate reader (VERSAmax).
(§4) Main reagents: kinase reaction substrate Poly(Glu, Tyr) 4:1 from Sigma; anti-phosphotyrosine monoclonal antibody PY99 from Santa Cruz; horseradish peroxidase-labeled goat anti-mouse IgG from Calbiochem; ATP, DTT, OPD from Amresco, and ELISA plate from Corning.
(§5) Poly(Glu, Tyr)4:1 as an enzyme substrate was diluted by potassium ion-free PBS into 20 μg/ml, and an ELISA plate was coated and subjected to reaction for 12-16 h at 37° C. After the liquid in wells was removed, the plate was washed three time by T-PBS, 5 min for each time. The ELISA plate was then dried in an oven at 37° C. The coated wells were added with the test samples: the test samples were prepared for a stock solution with a concentration of 1×10^−2M in DMSO. The aliquot solution was stored at −20° C., and diluted to the desired concentration with reaction buffer before use. The resulting solution was added into the wells so that the final concentration of 10-5 mol/l in 100 μL reaction system can be obtained. At the same time, a positive control well was set up and a positive control compound Su11248 was added. ATP and test tyrosine kinases were added: ATP solution diluted with reaction buffer was added (the final concentration of ATP is 5 μM). Finally, the test tyrosine kinases solution diluted with reaction buffer was added. The total volume of the reaction system was […]. Meanwhile, a negative control well and a control well without enzyme were set up. The reaction system was placed in a wet box, and shaked for 1 hour at 37° C., shielding from light. After the reaction was complete, the plate was washed by T-PBS three times. Antibody PY99 was added at 100 μL/well; and the plate was shaked for 30 min at 37° C. After the reaction was complete, the plate was washed with T-PBS three times. Horseradish peroxidase-labeled goat anti-mouse IgG was added at 100 μL/well, and the plate was shaked for 30 min at 37° C. The plate was washed with T-PBS three times. OPD developing liquid was added at 100 μL/well, and reacted for 1-10 min at room temperature, shielding from light. 50 μL of 2 M H2SO4 was added to stop the reaction. A492 value was determined using wavelength-tunable microplate reader. The inhibition ratio of the samples can be calculated by the following equation: […]
(In general: An ELISA detects its analyte on a solid surface through an enzyme-linked reagent.)

Data set [2] concerns the target ErbB-4 (Homo sapiens, UniProt Q15303). Put plainly: ELISA protein tyrosine kinase inhibition, ErbB-4. It counts as biochemical. The conditions noted are these: for IC50: ELISA, Poly(Glu, Tyr) 4:1 substrate, ATP 5 μM, test samples at 10-5 mol/l, read-out: ErbB4 inhibitory activity (IC50 class).
Source text: as §1, §2, §3, §4, §5

Data set [3] concerns the target EGFR (Epidermal Growth Factor Receptor 1) (Homo sapiens, UniProt P00533). Put plainly: ELISA protein tyrosine kinase inhibition, EGFR. It counts as biochemical. The conditions noted are these: for IC50: ELISA, Poly(Glu, Tyr) 4:1 substrate, ATP 5 μM, test samples at 10-5 mol/l, read-out: EGFR inhibitory activity (IC50 class).
Source text: as §1, §2, §3, §4, §5

Data set [4] deals with KDR (Vascular Endothelial Growth Factor Receptor 2) (Homo sapiens, UniProt P35968). As to the kind of experiment: ELISA protein tyrosine kinase inhibition, KDR. The data set is classed as biochemical. The conditions noted are these: for IC50: ELISA, Poly(Glu, Tyr) 4:1 substrate, ATP 5 μM, test samples at 10-5 mol/l, read-out: KDR inhibitory activity (IC50 class).
KDR (Vascular Endothelial Growth Factor Receptor 2), sequence (P35968 20-1356): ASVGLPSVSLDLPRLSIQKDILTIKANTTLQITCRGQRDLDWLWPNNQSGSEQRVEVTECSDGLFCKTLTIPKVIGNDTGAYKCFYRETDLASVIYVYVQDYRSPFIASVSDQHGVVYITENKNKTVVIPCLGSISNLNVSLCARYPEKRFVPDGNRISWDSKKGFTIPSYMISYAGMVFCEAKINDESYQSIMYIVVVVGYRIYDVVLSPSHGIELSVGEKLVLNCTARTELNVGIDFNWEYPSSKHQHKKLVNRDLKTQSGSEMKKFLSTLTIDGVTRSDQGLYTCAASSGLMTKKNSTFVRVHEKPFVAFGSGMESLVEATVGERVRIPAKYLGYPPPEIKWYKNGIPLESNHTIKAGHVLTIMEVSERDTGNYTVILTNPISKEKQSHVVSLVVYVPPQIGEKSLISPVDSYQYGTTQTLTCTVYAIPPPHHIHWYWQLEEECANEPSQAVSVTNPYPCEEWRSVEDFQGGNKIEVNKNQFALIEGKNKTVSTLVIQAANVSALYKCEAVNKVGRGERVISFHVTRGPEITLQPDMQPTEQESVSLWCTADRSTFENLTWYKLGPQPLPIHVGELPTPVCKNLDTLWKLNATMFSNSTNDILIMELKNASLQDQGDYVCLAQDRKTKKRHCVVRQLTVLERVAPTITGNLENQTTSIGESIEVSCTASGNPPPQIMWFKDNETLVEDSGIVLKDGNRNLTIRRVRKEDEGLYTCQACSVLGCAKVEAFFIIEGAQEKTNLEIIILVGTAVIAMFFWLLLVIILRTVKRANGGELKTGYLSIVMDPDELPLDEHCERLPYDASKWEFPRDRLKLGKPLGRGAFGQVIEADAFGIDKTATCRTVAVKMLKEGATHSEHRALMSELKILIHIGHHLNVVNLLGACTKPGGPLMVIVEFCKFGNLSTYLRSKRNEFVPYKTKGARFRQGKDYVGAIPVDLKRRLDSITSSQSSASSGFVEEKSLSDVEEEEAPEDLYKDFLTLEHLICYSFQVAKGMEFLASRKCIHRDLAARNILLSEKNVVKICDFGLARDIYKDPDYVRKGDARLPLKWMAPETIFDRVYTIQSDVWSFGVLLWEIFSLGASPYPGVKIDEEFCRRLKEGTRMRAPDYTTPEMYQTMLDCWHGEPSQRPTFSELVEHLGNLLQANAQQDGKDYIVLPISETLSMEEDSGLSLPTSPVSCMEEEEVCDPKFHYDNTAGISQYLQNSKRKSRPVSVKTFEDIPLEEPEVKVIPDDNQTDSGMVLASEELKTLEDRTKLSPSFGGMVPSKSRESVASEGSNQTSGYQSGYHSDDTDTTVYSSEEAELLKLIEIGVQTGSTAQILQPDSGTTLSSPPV
Source text: as §1, §2, §3, §4, §5

In data set [5] the test system is human lung cancer A549 xenograft. As to the kind of experiment: Growth inhibition of A549 xenograft in nude mice. It counts as in vivo. The note with it: for growth inhibition of human lung cancer A549 compared with positive control lapatinib (in words): xenograft in nude mice, 200 mg/kg. An excerpt:
Objective of the test: Determining the inhibition of some compounds of the present invention to the growth of human lung cancer A549 transplanted into nude mice and the action intensity thereof.
1. Human lung cancer A549 xenograft in nude mice, which was set up by subcutaneously transplantion of the human lung cancer A549 cell lines into right axillary fossa of nude mice. The amount of inoculation is 2×10^6 cells/mouse. Xenograft inoculated into the nude mice was passaged for 3 generations before use.
2. The solvent used in the experiments is: 0.5% of hydroxypropylmethyl cellulose and 0.1% of Tween-80.
3. Vigorous growing tumor tissues were selected to be chopped into approximately 1 mm^3. Under sterile conditions, the tumor tissue blocks were subcutaneously transplanted into right axillary fossa of nude mice. The diameters of the xenograft in nude mice were measured with a vernier caliper. When tumors reached approximately 100-300 mm^3 in size, the animals were randomly divided into groups, wherein there are 12 animals in solvent control group, and 6 animals per group in the other groups. […] The administered dosages were both 200 mg/kg, 5 times per week for consecutive four weeks. The diameters of the tumors were measured twice per week. The negative control group was intragastricly administrated the same amount of solvent. After the experiment, the mice were sacrificed. The tumors were surgically stripped and weighed. The tumor volume (TV) was calculated by the following equation:
[formula] in which a and b represents for the length and the width respectively.
According to the measured results, the relative tumor volume (RTV) was calculated. The calculation equation was: RTV=Vt/V0, wherein V0 is the tumor volume measured during cage administration (i.e. d0), Vt is the tumor volume of each measurement. The evaluation index of anti-tumor activity was the relative tumor growth ratio T/C (%), which was calculated by the following equation: […]
TRTV: treatment group's RTV; CRTV: negative control group's RTV.
Background: Xenograft models place foreign cells or tissue in a host animal.

ErbB-4, sequence (Q15303 26-1308): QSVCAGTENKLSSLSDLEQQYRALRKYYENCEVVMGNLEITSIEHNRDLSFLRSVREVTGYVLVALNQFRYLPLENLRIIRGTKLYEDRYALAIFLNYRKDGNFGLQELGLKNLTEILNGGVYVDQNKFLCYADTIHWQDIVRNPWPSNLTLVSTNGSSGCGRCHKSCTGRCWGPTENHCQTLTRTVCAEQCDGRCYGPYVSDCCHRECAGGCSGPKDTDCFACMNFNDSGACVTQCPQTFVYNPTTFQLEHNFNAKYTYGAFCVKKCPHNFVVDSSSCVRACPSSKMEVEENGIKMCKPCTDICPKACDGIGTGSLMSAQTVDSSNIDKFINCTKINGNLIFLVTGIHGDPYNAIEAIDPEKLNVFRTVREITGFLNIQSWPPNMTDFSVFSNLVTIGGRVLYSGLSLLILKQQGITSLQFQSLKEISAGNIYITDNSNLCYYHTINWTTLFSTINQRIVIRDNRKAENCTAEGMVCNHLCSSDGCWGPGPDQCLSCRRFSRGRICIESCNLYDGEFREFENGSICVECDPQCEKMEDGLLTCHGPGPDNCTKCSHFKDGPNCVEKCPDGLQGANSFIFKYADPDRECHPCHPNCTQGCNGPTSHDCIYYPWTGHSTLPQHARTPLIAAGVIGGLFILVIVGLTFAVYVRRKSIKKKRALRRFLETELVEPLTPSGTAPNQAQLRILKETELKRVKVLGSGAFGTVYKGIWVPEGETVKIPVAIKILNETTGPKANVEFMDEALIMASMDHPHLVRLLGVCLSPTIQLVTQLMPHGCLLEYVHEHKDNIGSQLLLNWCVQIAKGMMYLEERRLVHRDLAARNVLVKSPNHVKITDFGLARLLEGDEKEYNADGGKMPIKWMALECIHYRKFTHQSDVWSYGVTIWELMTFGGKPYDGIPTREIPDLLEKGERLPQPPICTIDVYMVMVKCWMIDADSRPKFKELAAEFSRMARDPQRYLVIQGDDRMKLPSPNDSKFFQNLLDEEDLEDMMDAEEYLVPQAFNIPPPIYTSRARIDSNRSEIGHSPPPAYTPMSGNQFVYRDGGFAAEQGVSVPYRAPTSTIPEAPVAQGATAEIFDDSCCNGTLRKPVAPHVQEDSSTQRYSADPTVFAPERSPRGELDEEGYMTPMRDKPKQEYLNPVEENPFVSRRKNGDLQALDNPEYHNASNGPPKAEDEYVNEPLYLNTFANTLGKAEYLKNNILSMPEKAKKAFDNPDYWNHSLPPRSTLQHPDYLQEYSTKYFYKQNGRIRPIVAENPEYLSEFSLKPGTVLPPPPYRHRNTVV

Take `CC(=O)OCCNCc1ccc(-c2ccc3ncnc(Nc4ccc(OCc5cccc(F)c5)c(Cl)c4)c3c2)o1`: the IC50 in data set [1], in data set [2], in data set [3] and in data set [4] was less than 10 µM each time.
With `OCCCCNCc1ccc(-c2ccc3ncnc(Nc4ccc(OCc5cccc(F)c5)c(Cl)c4)c3c2)o1` [MS1, N-(3-chloro-4-((3-fluorobenzyl)oxy)phenyl)-6-(5-(((4-hydroxybutyl)amino)methyl)-2-furyl)-4-quinazolinamine], in data set [4], the “inhibitory activity against KDR (in words)” value was “better inhibitory activity; also recorded: higher inhibitory activity”.
On to `OCC(CO)NCc1ccc(-c2ccc3ncnc(Nc4ccc(OCc5cccc(F)c5)c(Cl)c4)c3c2)o1` [MS6, N-(3-chloro-4-((3-fluorobenzyl)oxy)phenyl)-6-(5-((2-(1,3-dihydroxypropyl)amino)methyl)-2-furyl)-4-quinazolinamine], for which the “growth inhibition of human lung cancer A549 compared with positive control lapatinib (in words)” value in data set [5] was “better effective inhibition; also recorded: better growth inhibition effect”. The “inhibitory activity against KDR (in words)” value in data set [4] was “better inhibitory activity; also recorded: higher inhibitory activity”.
With `OCCN(CCO)Cc1ccc(-c2ccc3ncnc(Nc4ccc(OCc5cccc(F)c5)c(Cl)c4)c3c2)o1` [MS18, N-(3-chloro-4-((3-fluorobenzyl)oxy)phenyl)-6-(5-((bis(2-hydroxyethyl)amino)methyl)-2-furyl)-4-quinazolinamine], the “inhibitory activity against KDR (in words)” value in data set [4] is recorded as “better inhibitory activity; also recorded: higher inhibitory activity”.
Turning to `OCCNCc1ccc(-c2ccc3ncnc(Nc4ccc(OCc5cccc(F)c5)c(Cl)c4)c3c2)o1` [MS27, N-(3-chloro-4-((3-fluorobenzyl)oxy)phenyl)-6-(5-(((2-hydroxyethyl)amino)methyl)-2-furyl)-4-quinazolinamine], in data set [5], the “growth inhibition of human lung cancer A549 compared with positive control lapatinib (in words)” value is “better effective inhibition; also recorded: better growth inhibition effect”. Also, the “inhibitory activity against KDR (in words)” value in data set [4] is “better inhibitory activity; also recorded: higher inhibitory activity”.
As to `OCC(O)CNCc1ccc(-c2ccc3ncnc(Nc4ccc(OCc5cccc(F)c5)c(Cl)c4)c3c2)o1` (centres unmarked) [MS31, N-(3-chloro-4-((3-fluorobenzyl)oxy)phenyl)-6-(5-(1-(2,3-dihydroxypropyl)amino)methyl-2-furyl)-4-quinazolinamine], the “inhibitory activity against KDR (in words)” value in data set [4] is “better inhibitory activity; also recorded: higher inhibitory activity”.
Take `Fc1ccc(Nc2ncnc3ccc(-c4ccc(CNCCC5=CCCCC5)o4)cc23)cc1Cl` [MS41, N-(3-chloro-4-fluorophenyl)-6-(5-(((2-(cyclohexenyl)ethyl)amino)methyl)-2-furyl)-4-quinazolinamine]: the IC50 in data set [1] was less than 10 µM; in data set [4], more than 10 µM.
Turning to `OCCCNCc1ccc(-c2ccc3ncnc(Nc4ccc(OCc5cccc(F)c5)c(Cl)c4)c3c2)o1` [MS42], in data set [4], the “inhibitory activity against KDR (in words)” value is “better inhibitory activity; also recorded: higher inhibitory activity”.
For `Fc1cccc(COc2ccc(Nc3ncnc4ccc(-c5ccc(CNCC6CCCCC6)o5)cc34)cc2Cl)c1` [MS 7, N-(3-chloro-4-((3-fluorobenzyl)oxy)phenyl)-6-((5-((cyclohexylmethyl)amino)methyl)-2-furyl)-4-quinazolinamine], the values for the IC50 in data set [1], in data set [3] and in data set [4] were more than 10 µM, less than 10 µM and less than 10 µM, respectively.
With `Fc1cccc(COc2ccc(Nc3ncnc4ccc(-c5ccc(CNCC6CCCC(Cl)C6)o5)cc34)cc2Cl)c1` (centres unmarked) [MS 9, N-(3-chloro-4-((3-fluorobenzyl)oxy)phenyl)-6-(5-((((3-chlorocyclohexyl)methyl)amino)methyl)-2-furyl)-4-quinazolinamine], the IC50 is more than 10 µM in data set [1], less than 10 µM in data set [3] and less than 10 µM in data set [4].
For the compound `Fc1cccc(COc2ccc(Nc3ncnc4ccc(-c5ccc(CNCCc6cccc(Cl)c6)o5)cc34)cc2Cl)c1` [MS 20, N-(3-chloro-4-((3-fluorobenzyl)oxy)phenyl)-6-(5-(((2-(3-chlorophenyl)ethyl)amino)methyl)-2-furyl)-4-quinazolinamine], the 50% inhibitory concentration (IC50) in data set [1] was less than 10 µM; in data set [3], less than 10 µM; in data set [4], more than 10 µM.
Take `CSCCC(NCc1ccc(-c2ccc3ncnc(Nc4ccc(OCc5cccc(F)c5)c(Cl)c4)c3c2)o1)C(=O)O` (centres unmarked) [MS 26, N-(3-chloro-4-((3-fluorobenzyl)oxy)phenyl)-6-(5-((((1-carboxy-3-methylthio)propyl)amino)methyl)-2-furyl)-4-quinazolinamine]: the IC50 in data set [1] and in data set [3] was less than 10 µM each time. Besides, the “growth inhibition of human lung cancer A549 compared with positive control lapatinib (in words)” value in data set [5] is reported as “better effective inhibition”.
As to `CCCNCc1ccc(-c2ccc3ncnc(Nc4ccc(F)c(Cl)c4)c3c2)o1` [MS 36, N-(3-chloro-4-fluorophenyl)-6-(5-(((propyl)amino)methyl)-2-furyl)-4-quinazolinamine], the IC50 was less than 10 µM in data set [1] and more than 10 µM in data set [4]. Also, in data set [5] (A549 xenograft, 200 mg/kg intragastric, 5 times per week for four weeks, end), the “TV (mm^3) End” value is recorded as 770.3 ± 212.8^▴ mm^3. The “TV (mm^3) Start” value in data set [5] (A549 xenograft, 200 mg/kg intragastric, start of dosing) is reported as 155.5 ± 72.8 mm^3. Further, the “T/C (%)” value in data set [5] (A549 xenograft, relative tumor growth ratio, 200 mg/kg intragastric, 5 times per week for four weeks) was determined as 36.1%. The “Weight (g) End” value in data set [5] (nude mice with A549 xenograft, 200 mg/kg intragastric, 5 times per week for four weeks, end) is given as 25.0 ± 1.8 g. Also, the “Weight (g) Start” value in data set [5] (nude mice with A549 xenograft, 200 mg/kg intragastric, start of dosing) was found to be 24.5 ± 1.8 g. Besides, the “growth inhibition of human lung cancer A549 compared with positive control lapatinib (in words)” value in data set [5] was “better growth inhibition effect”.
As to `CC=CCNCc1ccc(-c2ccc3ncnc(Nc4ccc(F)c(Cl)c4)c3c2)o1` [MS 39, N-(3-chloro-4-fluorophenyl)-6-(5-(((2-butenyl)amino)methyl)-2-furyl)-4-quinazolinamine], the IC50 in data set [1] was less than 10 µM; in data set [4], more than 10 µM.
As for “N-(3-chloro-4-((3-fluorobenzyl)oxy)phenyl)-6-(5-((4-methylpiperazinyl)methyl)-2-pyrrolidinyl)-4-quinazolinamine [MS 34]”, the IC50 in data set [1] was less than 10 µM. Moreover, in data set [2], the “inhibition of c-ErbB4/HER4 (in words)” value is “very good inhibition” and the IC50 is less than 10 µM. Moreover, in data set [3], the “inhibitory activity against EGFR (in words)” value is “better inhibitory activity” and the IC50 was less than 10 µM.
